Laboratory results published in US9150566B2, “2-(1,2,3-triazol-2-yl)benzamide and 3-(1,2,3-triazol-2-YL)picolinamide derivatives as orexin receptor antagonists” (ACTELION PHARMACEUTICALS LTD., priority 2011, dated 2015).

Assays:
[1] = molecular target: CYP3A4 (Homo sapiens (Human), UniProt P08684); test: CYP3A4 inhibition assay (human liver microsomes, testosterone 6β-hydroxylation); conditions: read-out: CYP3A4 IC50, 40 μM testosterone
[2] = molecular target: human orexin-2 receptor (Homo sapiens (Human), UniProt O43614); test: In vitro intracellular calcium measurements (FLIPR), antagonistic activity on orexin-2 receptor; format: cell-based; conditions: CHO cells expressing human orexin-2 receptor; FLIPR; 3 nM orexin-A agonist; 120 min antagonist incubation; geometric mean if determined several times; read-out: IC50 OX2
Protocol: (§1) In Vitro Assay: Intracellular Calcium Measurements:
(§2) Chinese hamster ovary (CHO) cells expressing the human orexin-1 receptor and the human orexin-2 receptor, respectively, are grown in culture medium (Ham F-12 with L-Glutamine) containing 300 μg/mL G418, 100 U/mL penicillin, 100 μg/mL streptomycin and 10% heat inactivated fetal calf serum (FCS). The cells are seeded at 20′000 cells/well into 384-well black clear bottom sterile plates (Greiner). The seeded plates are incubated overnight at 37° C. in 5% CO2.
(§3) Within the Fluorescent Imaging Plate Reader (FLIPR Tetra, Molecular Devices), antagonists are added to the plate in a volume of 10 μL/well, incubated for 120 min and finally 10 μL/well of agonist is added. Fluorescence is measured for each well at 1 second intervals, and the height of each fluorescence peak is compared to the height of the fluorescence peak induced by 3 nM orexin-A with vehicle in place of antagonist. […] Optimized conditions were achieved by adjustment of pipetting speed and cell splitting regime. The calculated IC50 values may fluctuate depending on the daily cellular assay performance. Fluctuations of this kind are known to those skilled in the art.

[3] = molecular target: human orexin-1 receptor (Homo sapiens (Human), UniProt O43613); test: In vitro intracellular calcium measurements (FLIPR), antagonistic activity on orexin-1 receptor; format: cell-based; conditions: CHO cells expressing human orexin-1 receptor; FLIPR; 3 nM orexin-A agonist; 120 min antagonist incubation; geometric mean if determined several times; read-out: IC50 OX1
Protocol: as §1, §2, §3

Sequence of human orexin-2 receptor (O43614 whole entry): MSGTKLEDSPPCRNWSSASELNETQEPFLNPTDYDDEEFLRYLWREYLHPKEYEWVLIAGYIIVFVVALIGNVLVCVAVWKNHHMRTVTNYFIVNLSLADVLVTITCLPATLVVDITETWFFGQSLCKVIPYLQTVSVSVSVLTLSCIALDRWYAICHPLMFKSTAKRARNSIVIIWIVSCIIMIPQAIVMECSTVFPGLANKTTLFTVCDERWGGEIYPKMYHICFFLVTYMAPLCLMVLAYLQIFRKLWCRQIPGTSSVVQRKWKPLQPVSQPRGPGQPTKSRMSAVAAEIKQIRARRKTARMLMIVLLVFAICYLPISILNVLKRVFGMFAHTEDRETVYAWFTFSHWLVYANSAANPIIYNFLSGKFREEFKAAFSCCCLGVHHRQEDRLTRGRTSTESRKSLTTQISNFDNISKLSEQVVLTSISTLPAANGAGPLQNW
Sequence of CYP3A4 (P08684 whole entry): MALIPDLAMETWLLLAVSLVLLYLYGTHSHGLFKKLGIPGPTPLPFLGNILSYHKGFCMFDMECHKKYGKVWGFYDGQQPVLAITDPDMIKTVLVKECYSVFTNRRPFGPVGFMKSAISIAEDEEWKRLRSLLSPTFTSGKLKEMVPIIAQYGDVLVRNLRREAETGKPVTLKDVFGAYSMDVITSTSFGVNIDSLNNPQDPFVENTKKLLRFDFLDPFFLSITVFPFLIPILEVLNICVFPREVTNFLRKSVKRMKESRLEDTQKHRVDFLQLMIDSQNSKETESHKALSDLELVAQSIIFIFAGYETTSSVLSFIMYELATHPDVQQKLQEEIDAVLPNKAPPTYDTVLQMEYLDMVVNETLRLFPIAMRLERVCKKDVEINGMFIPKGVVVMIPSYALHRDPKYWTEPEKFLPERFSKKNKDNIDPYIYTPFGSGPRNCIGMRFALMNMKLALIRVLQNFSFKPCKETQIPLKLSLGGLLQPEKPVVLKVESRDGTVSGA
Sequence of human orexin-1 receptor (O43613 whole entry): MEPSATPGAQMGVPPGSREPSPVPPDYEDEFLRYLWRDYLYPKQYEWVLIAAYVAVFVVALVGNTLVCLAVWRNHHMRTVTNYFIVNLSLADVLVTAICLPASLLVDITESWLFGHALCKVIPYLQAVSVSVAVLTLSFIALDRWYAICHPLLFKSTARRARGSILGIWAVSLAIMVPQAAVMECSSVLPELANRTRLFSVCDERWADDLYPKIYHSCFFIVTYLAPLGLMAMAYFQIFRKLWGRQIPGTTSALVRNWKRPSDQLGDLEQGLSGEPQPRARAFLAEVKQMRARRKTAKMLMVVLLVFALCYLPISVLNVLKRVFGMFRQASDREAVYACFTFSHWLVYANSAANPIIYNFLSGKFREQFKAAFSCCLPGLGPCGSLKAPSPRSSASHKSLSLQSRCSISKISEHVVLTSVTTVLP

Row | Structure (SMILES) | IC50 [1] [nM] | IC50 [2] [nM] | IC50 [3] [nM]
1 | Cc1ccc(C(=O)N2CCO[C@@H](C)[C@H]2Cc2cccc(-n3nccn3)c2)c(-n2nccn2)c1 (single isomer, unassigned) [Example 163, [(2S,3R)-2-Methyl-3-(3-[1,2,3]triazol-2-yl-benzyl)-morpholin-4-yl]-(4-methyl-2-[1,2,3]triazol-2-yl-phenyl)-methanone or [(2R,3R)-2-Methyl-3-(3-[1,2,3]triazol-2-yl-benzyl)-morpholin-4-yl]-(4-methyl-2-[1,2,3]triazol-2-yl-phenyl)-methanone] | 14000 |  | 
2 | Cc1ccc(C(=O)N2CCO[C@H](C)[C@H]2Cc2cccc(-n3nccn3)c2)c(-n2nccn2)c1 (single isomer, unassigned) [Example 168, [(2R,3R)-2-Methyl-3-(3-[1,2,3]triazol-2-yl-benzyl)-morpholin-4-yl]-(4-methyl-2-[1,2,3]triazol-2-yl-phenyl)-methanone or [(2S,3R)-2-Methyl-3-(3-[1,2,3]triazol-2-yl-benzyl)-morpholin-4-yl]-(4-methyl-2-[1,2,3]triazol-2-yl-phenyl)-methanone] | 8500 |  | 
3 | Cc1ccc(-n2nccn2)c(C(=O)N2CCOC[C@H]2Cc2cccc(-c3ncccn3)c2)c1F [Example 49, (2-Fluoro-3-methyl-6-[1,2,3]triazol-2-yl-phenyl)-[(R)-3-(3-pyrimidin-2-yl-benzyl)-morpholin-4-yl]-methanone] | 21000 | 582 | 
4 | COc1cc(C(=O)N2CCOC[C@H]2Cc2cccc(-n3nccn3)c2)c(-n2nccn2)cc1Cl [Example 104, (4-Chloro-5-methoxy-2-[1,2,3]triazol-2-yl-phenyl)-[(R)-3-(3-[1,2,3]triazol-2-yl-benzyl)-morpholin-4-yl]-methanone] | 13000 | 117 | 
5 | O=C(c1cc(F)c(F)cc1-n1nccn1)N1CCOC[C@H]1Cc1cc(-n2nccn2)ccc1F [Example 137, (4,5-Difluoro-2-[1,2,3]triazol-2-yl-phenyl)-[(R)-3-(2-fluoro-5-[1,2,3]triazol-2-yl-benzyl)-morpholin-4-yl]-methanone] |  | 202 | 30
6 | Cc1ccc(-n2nccn2)c(C(=O)N2C[C@@H](C)OC[C@H]2Cc2cc(-n3ccnn3)ccc2F)c1 [Example 140, [(2R,5R)-5-(2-Fluoro-5-[1,2,3]triazol-1-yl-benzyl)-2-methyl-morpholin-4-yl]-(5-methyl-2-[1,2,3]triazol-2-yl-phenyl)-methanone] |  | 1110 | 27
7 | C[C@@H]1CN(C(=O)c2ccccc2-n2nccn2)[C@H](Cc2cc(-c3ncccn3)ccc2F)CO1 [Example 148, [(2R,5R)-5-(2-Fluoro-5-pyrimidin-2-yl-benzyl)-2-methyl-morpholin-4-yl]-(2-[1,2,3]triazol-2-yl-phenyl)-methanone] |  | 1940 | 39
8 | Cc1ccc(C(=O)N2C[C@@H](C)OC[C@H]2Cc2cc(-c3ncccn3)ccc2F)c(-n2nccn2)c1C [Example 151, (3,4-Dimethyl-2-[1,2,3]triazol-2-yl-phenyl)-[(2R,5R)-5-(2-fluoro-5-pyrimidin-2-yl-benzyl)-2-methyl-morpholin-4-yl]-methanone] |  | 818 | 8
9 | Cc1cccc(C(=O)N2CCOC[C@H]2Cc2cc(-c3ncccn3)ccc2F)c1-n1nccn1 [Example 157, [(R)-3-(2-Fluoro-5-pyrimidin-2-yl-benzyl)-morpholin-4-yl]-(3-methyl-2-[1,2,3]triazol-2-yl-phenyl)-methanone] |  | 2590 | 39
10 | Cc1cccc(C(=O)N2CCOC[C@H]2Cc2cc(-c3ncon3)ccc2F)c1-n1nccn1 [Example 177, [(R)-3-(2-Fluoro-5-[1,2,4]oxadiazol-3-yl-benzyl)-morpholin-4-yl]-(3-methyl-2-[1,2,3]triazol-2-yl-phenyl)-methanone] |  | 893 | 25
11 | O=C(c1ccccc1-n1nccn1)N1CCOC[C@H]1Cc1ccc(Cl)c(-c2ncccn2)c1 [Example 194, [(R)-3-(4-Chloro-3-pyrimidin-2-yl-benzyl)-morpholin-4-yl]-(2-[1,2,3]triazol-2-yl-phenyl)-methanone] |  | 2260 | 33
